Assay results published in patent US20180168208A1 (priority 2014, published 2018).
Like-named read-outs stand apart in the source and are kept apart here.

Tests used:
cat T1R1/T1R3 receptor = target: T1, cat T1R1/T1R3 receptor (Felis catus, UniProt A0ABI7Z2I4); assay: cell-based; conditions: for function as activators of T1R1/T1R3 (in words): in the presence of alanine
T1 sequence (A0ABI7Z2I4 171-420): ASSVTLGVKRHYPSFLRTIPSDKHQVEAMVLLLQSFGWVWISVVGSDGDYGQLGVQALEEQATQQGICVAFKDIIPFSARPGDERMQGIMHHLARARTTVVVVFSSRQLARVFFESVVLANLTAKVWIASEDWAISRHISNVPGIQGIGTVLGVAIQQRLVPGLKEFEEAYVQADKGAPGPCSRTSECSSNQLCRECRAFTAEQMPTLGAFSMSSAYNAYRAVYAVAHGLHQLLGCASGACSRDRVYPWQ
T1 sequence (Q49KI5 25-865 E206Q/N523D/F654L partner): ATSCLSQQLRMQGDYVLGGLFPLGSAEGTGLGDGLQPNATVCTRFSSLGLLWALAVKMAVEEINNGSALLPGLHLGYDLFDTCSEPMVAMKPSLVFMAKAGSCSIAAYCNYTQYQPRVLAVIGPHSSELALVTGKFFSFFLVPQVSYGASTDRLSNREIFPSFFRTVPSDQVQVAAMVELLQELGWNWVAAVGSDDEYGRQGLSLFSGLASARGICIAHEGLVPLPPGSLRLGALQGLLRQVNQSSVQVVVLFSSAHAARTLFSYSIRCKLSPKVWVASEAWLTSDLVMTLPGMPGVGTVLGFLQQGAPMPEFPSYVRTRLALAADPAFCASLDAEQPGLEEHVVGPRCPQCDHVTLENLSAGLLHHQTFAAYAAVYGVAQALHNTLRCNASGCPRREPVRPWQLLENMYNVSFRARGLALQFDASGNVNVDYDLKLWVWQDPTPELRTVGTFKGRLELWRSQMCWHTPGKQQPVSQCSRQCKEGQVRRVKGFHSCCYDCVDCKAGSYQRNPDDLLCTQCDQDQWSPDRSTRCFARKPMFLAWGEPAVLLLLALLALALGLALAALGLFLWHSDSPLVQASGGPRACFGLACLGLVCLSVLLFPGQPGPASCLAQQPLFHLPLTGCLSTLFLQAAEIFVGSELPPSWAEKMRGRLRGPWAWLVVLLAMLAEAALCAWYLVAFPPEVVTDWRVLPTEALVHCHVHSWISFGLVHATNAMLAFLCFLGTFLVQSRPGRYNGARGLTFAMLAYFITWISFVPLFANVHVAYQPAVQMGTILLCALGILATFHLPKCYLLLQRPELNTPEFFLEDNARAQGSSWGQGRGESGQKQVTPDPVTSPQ
Text: (§1) HEK293 cells that stably express T1R3 and inducibly express T1R1 were exposed to nucleotide derivatives alone or in combination with one or more amino acids and/or one or more nucleotides to activate the umami receptor. Activation of the T1R1/T1R3 receptor was detected by a change in intracellular calcium levels using a calcium sensitive fluorescent dye and/or a luminescent reporter system. Cells that express T1R3 but not T1R1 were used as a control. A FLIPR® Tetra or a FlexStation® 3 was used for data capture.

T1R1/T1R3 receptor = T1R1/T1R3 receptor (Felis catus, UniProt E3UMS2); assay: cell-based; type: cell-based
Text: as §1, with “transmembrane compounds” for “nucleotide derivatives”, “dye.” for “dye and/or a luminescent reporter system.”
In each experiment, serial dilutions of up to 10 mM of the transmembrane compound were added to the T1R1/T1R3-expressing cells.

Compound | Activity (cat T1R1/T1R3 receptor) | Threshold (cat T1R1/T1R3 receptor) | Max resp. (ΔF/F) (cat T1R1/T1R3 receptor) | Max. resp. % of IMP (cat T1R1/T1R3 receptor) | also measured
Nc1ncnc2c1ncn2[C@H]1C[C@H](O)[C@@H](COP(=O)(O)O)O1 [2′-Deoxyadenosine 5′-monophosphate] | active | 0.035 mM | – | – | EC50 (cat T1R1/T1R3 receptor): 140 µM
Nc1ncnc2c1ncn2[C@H]1C[C@H](OP(=O)(O)O)[C@@H](COP(=O)(O)O)O1 [2′-Deoxyadenosine-3′,5′-O-bisphosphate] | active | – | – | – | –
Nc1ncnc2c1ncn2C1CC(O)C(COP(O)(O)=S)O1 (stereo not shown) [2′-Deoxyadenosine-5′-O-monophosphorothioate] | active | 0.015 mM | – | – | –
Nc1nc2c(ncn2C2CC(OP(=O)(O)O)C(COP(=O)(O)O)O2)c(=O)[nH]1 (stereo not shown) [2′-Deoxyguanosine-3′,5′-O-bisphosphate] | active | 0.005 mM | 1.8925 ΔF/F | 152.3 % of IMP | function as activators of T1R1/T1R3 (in words) (cat T1R1/T1R3 receptor): activators of T1R1/T1R3
Nc1nc2c(ncn2C2CC(O)C(COP(O)(O)=S)O2)c(=O)[nH]1 (stereo not shown) [2′-Deoxyguanosine-5′-O-monophosphorothioate] | active | 0.0025 mM | 1.0775 ΔF/F | 86.7 % of IMP | function as activators of T1R1/T1R3 (in words) (cat T1R1/T1R3 receptor): activators of T1R1/T1R3
Nc1nc2c(ncn2[C@H]2C[C@H](O)[C@@H](COP(O)(O)=S)O2)c(=O)[nH]1 [2′-Deoxyguanosine-5′-O-monophosphorothioate] | active | 0.005 mM | – | – | function as activators of T1R1/T1R3 (in words) (cat T1R1/T1R3 receptor): activators of T1R1/T1R3
O=c1[nH]cnc2c1ncn2C1CC(O)C(COP(O)(O)=S)O1 (stereo not shown) [2′-Deoxyinosine-5′-O-monophosphorothioate] | active | 0.025 mM | – | – | –
O=c1ccn([C@H]2C[C@H](O)[C@@H](COP(O)(O)=S)O2)c(=O)[nH]1 [2′-Deoxyuridine-5′-O-monophosphorothioate (5′-dUMPS)] | – | 5.000 mM | 0.4200 ΔF/F | 43.4 % of IMP | –
O=c1ccn([C@H]2C[C@H](O)[C@@H](COP(O)(O)=S)O2)c(=O)[nH]1 [2′-Deoxyuridine-5′-O-monophosphorothioate] | – | – | – | – | EC50 (cat T1R1/T1R3 receptor): > 30000 µM
O=c1ccn([C@H]2C[C@H](O)[C@@H](COP(O)(O)=S)O2)c(=O)[nH]1 [2′-Deoxyuridine-5′-O-monophosphosphorothioate (5′-dUMPS)] | active | 5.000 mM | 0.4200 ΔF/F | 43.4 % of IMP | –
NC(=O)c1ncn(C2OC(COP(=O)(O)O)C(O)C2O)c1N [5-Aminoimidazole-4-carboxamide-1-β-D-ribofuranosyl 5′-monophosphate] | active | 0.200 mM | – | – | EC50 (cat T1R1/T1R3 receptor): > 1000 µM
O=P(O)(O)OCC1OC(n2cnc3c(Cl)ncnc32)C(O)C1O (stereo not shown) [6-Chloropurineriboside-5′-O-monophosphate] | active | – | 1.5325 ΔF/F | 123.3 % of IMP | –
CCC(CC)NC(=O)c1ccc2c(c1)OCCO2 [N-(pentan-3-yl)-2,3-dihydrobenzo[b][1,4]dioxine-6-carboxamide] | – | – | – | – | Thres +Alanine (T1R1/T1R3 receptor; + Alanine (20 nM), Table 17): 0.3 mM; Max resp % of IMP + Alanine (T1R1/T1R3 receptor; + Alanine, Table 17): 25.2 % of IMP; Max resp ΔF/F +Alanine (T1R1/T1R3 receptor; + Alanine, Table 17): 0.3125; EC50 (T1R1/T1R3 receptor; + Alanine, Table 17, read-out: EC50 + Alanine): > 1000 µM; Max resp % of ALa + IMP (T1R1/T1R3 receptor; + IMP (0.2 mM), Table 17): 70.9 % of ALa; Thres + IMP (T1R1/T1R3 receptor; + IMP (0.2 mM), Table 17): 0.075 mM; Max resp ΔF/F +Alanine (T1R1/T1R3 receptor; +Alanine (20 mM), Table 18): 0.3125; Thres +Alanine (T1R1/T1R3 receptor; +Alanine (20 mM), Table 18): 0.3 mM; EC50 (T1R1/T1R3 receptor; +Alanine (20 mM), Table 18, read-out: EC50 +Alanine): > 1000 µM; Max resp % of Ala +IMP (T1R1/T1R3 receptor; +IMP (0.2 mM), Table 18): 70.9 % of Ala; Max resp ΔF/F +IMP (T1R1/T1R3 receptor; +IMP (0.2 mM), Table 18): 0.8725; EC50 (T1R1/T1R3 receptor; EC50 + IMP, + IMP (0.2 mM), Table 17): 300 µM; EC50 (T1R1/T1R3 receptor; EC50 +Alanine + IMP, +Alanine (20 mM) + IMP (0.2 mM), Table 18): 200 µM; EC50 (T1R1/T1R3 receptor; EC50 +IMP, +IMP (0.2 mM), Table 18): 300 µM; EC50 (T1R1/T1R3 receptor; compound alone in buffer, Table 17, read-out: EC50 + buffer (alone)): > 1000 µM; EC50 (T1R1/T1R3 receptor; compound alone in buffer, Table 18, read-out: EC50 +buffer (alone)): > 1000 µM
N[C@@H](Cc1ccccc1)C(=O)O [Phenylalanine, phenylalanine] | – | – | – | – | EC50 (T1R1/T1R3 receptor; EC50 - with IMP (0.2 mM), with 0.2 mM IMP): 3400 ± 700 µM
